Measured values taken from paper PMC6287599, “2,6-Bis(2-Benzimidazolyl)Pyridine (BBP) Is a Potent and Selective Inhibitor of Small Conductance Calcium-Activated Potassium (SK) Channels” (Frontiers in Pharmacology, 2018).
Like-named read-outs stand apart in the source and are kept apart here. Positions of bridges follow the written chain, without caps; N, C: chain ends. No end group written: not given here.

Key:
rSK3 H491N = molecular target: T1, rSK3 H491N (Rattus norvegicus, UniProt P70605, H486N); details: cited from earlier work
T1 construct: expressed in transfected cells; host or cells: HEK293 (transient, co-transfected with eGFP)

hBK = molecular target: T2, hBK (Homo sapiens, UniProt Q12791); assay: Manual whole cell patch clamp, HEK293 transiently transfected with hBK; type: cell-based; details: paxilline 3 μM, after BBP 1 μM
T2 construct: expressed in transfected cells; host or cells: HEK293 (transient, co-transfected with eGFP)
T2 sequence (Q12791 whole entry): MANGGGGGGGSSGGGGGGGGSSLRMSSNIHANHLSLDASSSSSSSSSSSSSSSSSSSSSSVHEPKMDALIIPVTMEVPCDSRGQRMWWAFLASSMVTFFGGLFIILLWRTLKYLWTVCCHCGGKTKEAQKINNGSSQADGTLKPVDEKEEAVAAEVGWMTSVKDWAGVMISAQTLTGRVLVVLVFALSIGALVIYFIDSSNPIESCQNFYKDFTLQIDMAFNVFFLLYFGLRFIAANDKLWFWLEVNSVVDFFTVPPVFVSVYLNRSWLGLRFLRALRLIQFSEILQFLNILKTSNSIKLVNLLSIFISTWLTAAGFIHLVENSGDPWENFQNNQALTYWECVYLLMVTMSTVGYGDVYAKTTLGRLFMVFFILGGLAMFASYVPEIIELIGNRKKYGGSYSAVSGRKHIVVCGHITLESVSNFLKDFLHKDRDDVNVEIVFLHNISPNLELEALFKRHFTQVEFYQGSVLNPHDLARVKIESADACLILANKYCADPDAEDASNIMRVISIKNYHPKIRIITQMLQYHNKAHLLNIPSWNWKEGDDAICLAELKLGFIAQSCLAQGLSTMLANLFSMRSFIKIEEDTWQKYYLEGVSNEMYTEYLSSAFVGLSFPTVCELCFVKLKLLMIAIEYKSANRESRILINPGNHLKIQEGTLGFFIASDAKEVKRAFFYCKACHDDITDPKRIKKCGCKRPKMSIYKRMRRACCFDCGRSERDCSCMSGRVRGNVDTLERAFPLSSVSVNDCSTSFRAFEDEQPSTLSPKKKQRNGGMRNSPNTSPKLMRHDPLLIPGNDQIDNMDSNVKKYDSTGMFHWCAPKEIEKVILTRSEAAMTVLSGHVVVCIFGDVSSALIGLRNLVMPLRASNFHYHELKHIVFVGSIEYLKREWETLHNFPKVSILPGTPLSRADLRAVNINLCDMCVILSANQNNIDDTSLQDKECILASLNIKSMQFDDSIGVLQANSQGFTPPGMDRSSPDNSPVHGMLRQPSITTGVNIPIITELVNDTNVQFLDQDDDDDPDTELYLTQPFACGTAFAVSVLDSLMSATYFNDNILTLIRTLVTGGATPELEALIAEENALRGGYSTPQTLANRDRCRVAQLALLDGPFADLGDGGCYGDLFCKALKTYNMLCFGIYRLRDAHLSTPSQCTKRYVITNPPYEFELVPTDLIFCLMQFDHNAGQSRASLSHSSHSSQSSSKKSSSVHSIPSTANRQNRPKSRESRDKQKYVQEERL
Experimental: HEK293 cells were transiently co-transfected with the plasmid of interest (hBK, hSK1, hSK2, hSK3 WT, rSK3 H491N, or hIK) and eGFP using standard Lipofectamine™ 2000 (Thermo Fisher Scientific, Waltham, Massachussets, USA) transfection protocols. After transfection, cells were incubated overnight before the experiments.
Manual patch clamp experiments were performed at room temperature in the whole cell configuration with a HEKA EPC9 amplifier and the Patchmaster software (HEKA Elektronik, Ludwigshafen, Germany). All currents were elicited every 2 s using an incremental 200 ms voltage-ramp protocol starting at −80 mV and finishing at +80 mV from a holding potential of 0 mV. […]
To assess the effect of BBP on other calcium-activated potassium channels (hBK, hSK3 WT, rSK3 H491N, and hIK), each individual current was first normalized to its cell size using membrane's capacitance (pA/pF) before statistical analysis. […] Statistical significance between saline and the effect of both BBP and the corresponding reference compound was determined for each channel using one-way ANOVA analysis. […]
After testing BBP on the three SK channel subtypes, we decided to explore whether other calcium-activated potassium channels were affected by the compound. […] Finally, a positive control was used to inhibit the remaining current and quantify the total effect of BBP. […]

| Compound | Sensitivity of rSK3 H491N mutant to blocker (rSK3 H491N; ref Lamy et al., 2010) | other results |
| --- | --- | --- |
| COc1cc2c3cc1Oc1cc(ccc1O)C[C@@H]1c4c(cc(OC)c(O)c4Oc4ccc(cc4)C[C@@H]3N(C)CC2)CC[N+]1(C)C [D-tubocurarine] | insensitive |  |
| c1cc2cc(c1)C[n+]1ccc(c3ccccc31)NCc1ccc(cc1)CNc1cc[n+](c3ccccc13)C2 [UCL1684] |  | Sensitivity of rSK3 H491N mutant to blocker (rSK3 H491N): insensitive |
| CC(C)(O)[C@H]1O[C@H]2CC[C@@]3(C)[C@@](O)(CC[C@H]4Cc5c([nH]c6ccccc56)[C@@]43C)C2=CC1=O [paxilline, reference compound] |  | Effect on remaining hBK current (reference) (hBK): totally inhibited |
| apamin (CNCKAPETALCARRCQQH-NH2; disulfide 1-11, 3-15; ends not checked; UniProt P01500 28-45, looked up) | insensitive |  |
